Three compounds from patent US8288393B2, “Nitrogen-containing heterocyclic compound and pest control agent” (Nippon Soda Co., Ltd., priority 2007, dated 2012) can be followed below.

Some results are limits rather than exact numbers.

The test system of one data set is Culex pipiens molestus. In words: Efficacy against Culex pipiens molestus (larvae in water). The settings on record: in vivo. As to the method: 0.225 ml of distilled water containing 10 Culex pipiens molestus larvae 1 day after hatching and aquarium fish food (TetraMin, Tetra Japan) were placed in a 0.3 ml polystyrene test container.
The compounds were prepared as 1% solutions using DMSO (containing 0.5% Tween 20), and further diluted to 0.01% with distilled water. 0.025 ml of the diluted chemical liquid were added to the test container containing the Culex pipiens molestus larvae followed by stirring (final compound concentration: 0.001%).
Insect mortality rates were invested 2 days after allowing to stand at 25° C. The test was repeated twice.

A further data set relates to Spodoptera litura. In words: Efficacy against Spodoptera litura (cabbage leaf dip). The settings on record: 125 ppm emulsion, cabbage leaves immersed, 2nd instar larvae, 25° C., 5 days later. The format is in vivo. The protocol: (§1) The emulsion indicated in the aforementioned Preparation Example 2 was diluted with water to a compound concentration of 125 ppm in accordance with the formula thereof. After immersing cabbage leaves in the chemical liquid for 30 seconds and allowing to air dry, the cabbage leaves were placed in a Petri dish lined with filter paper and inoculated with five 2nd instar Spodoptera litura larvae. A glass cover was placed over the Petri dish, the dish was placed in a constant temperature chamber at a temperature of 25° C. and humidity of 65%, and viability was investigated 5 days later followed by determination of insect mortality rate. The test was repeated twice.

Data set [1] concerns Tetranychus urticae resistant to organic phosphorous agents. Put plainly: Efficacy against Tetranychus urticae (spray on kidney bean plants). In kind it is in vivo. The note with it: 125 ppm wettable powder sprayed on kidney bean plants, female adults, 25° C., 3 days later. An excerpt: After inoculating the first true leaves of kidney bean plants planted in a no. 3 pot for which 7 to 10 days had elapsed since germination with female adult Tetranychus urticae resistant to organic phosphorous agents, a chemical liquid diluted with water to a compound concentration of 125 ppm was sprayed onto the kidney bean plants in accordance with the formula of the wettable powder indicated in the aforementioned Preparation Example 1. The kidney bean plants were placed in a constant temperature chamber at a temperature of 25° C. and humidity of 65% and insect mortality rate was investigated 3 days later. The test was repeated twice.

A further data set deals with Pseudaletia separata. Put plainly: Efficacy against Pseudaletia separata (corn leaf dip). The format is in vivo. The settings on record: 125 ppm wettable powder, corn leaves immersed, 2nd instar larvae, 25° C., 5 days later. The protocol:
as §1, with “The wettable powder” for “The emulsion”, “Example 1” for “Example 2”, “immersing corn” for “immersing cabbage”, “the corn” for “the cabbage”, “instar Pseudaletia separata” for “instar Spodoptera litura”

The next data set relates to Aphis gossypii. In words: Efficacy against Aphis gossypii (spray on infested cucumber plants). The settings on record: 125 ppm emulsion sprayed on cucumber plants infested with nymphs, 25° C., 5 days later. The format is in vivo. An excerpt:
Cucumber plants planted in a no. 3 pot for which 10 days had elapsed since germination were inoculated with adult Aphis gossypii. The adult insects were removed after 1 day, and a chemical liquid diluted with water to a compound concentration of 125 ppm was sprayed onto the cucumber plants infested with nymphs laid by the adults in accordance with the emulsion formula indicated in the aforementioned Preparation Example 2. The cucumber plants were placed in a constant temperature chamber at a temperature of 25° C. and humidity of 65% and insect viability was investigated 5 days later followed by determination of insect mortality rate. The test was repeated twice.

“N-{[5-(3,5-dichlorophenyl)-5-trifluoromethyl-4,5-dihydroisoxazol-3-yl]indan-1-yl}-propionic acid amide [1-6]” came in with an insect mortality rate with Culex pipiens molestus of at least 90%. For `Cc1cc(Cl)ccc1N=CN(C)C` [chlordimeform], the insect mortality rate (in the data set with Spodoptera litura; in data set [1]; with Pseudaletia separata) was 40% in each case. In the case of `Cc1nc(N(C)C)nc(OC(=O)N(C)C)c1C` [pirimicarb], the insect mortality rate in the data set on Aphis gossypii is recorded as 9%.
